These results are taken from PMC3410856, “Structural Analysis of Specific Metal Chelating Inhibitor Binding to the Endonuclease Domain of Influenza pH1N1 (2009) Polymerase” (PLoS Pathogens, 2012).

For orientation: IC50 means the concentration at which inhibition is half-maximal.

One data set in a line: in vitro. As to conditions: dog.
The test system of data set [1] is Influenza A virus A/Aichi/2/68 (H3N2). Kind of data set: microbe, parasite or virus in culture. The format is cell-based. As to conditions: MDCK cells, MOI 0.05, 48 h, CellTiter-Glo, 95% confidence intervals; for IC50: Influenza A virus, H3N2, read-out: antiviral activity IC50 (reduction of virus induced cytopathic effect).
The target of a further data set is T1, H1N1 PA-Nter (Influenza A virus, UniProt C3W5S0).
T1 construct: PA-N-ter (residues 1–198) from A/California/04/2009-pH1N1; made in house; host or cells: E. coli BL21(DE3)
The format is binding.

For another data set, the target named is influenza polymerase. As to conditions: read-out: IC50 in vitro cap-dependent transcriptase assay; cited from earlier work.

The structures appear in SMILES notation. Like-named read-outs stand apart in the source and are kept apart here.

As for `O=C(O[C@@H]1Cc2c(O)cc(O)cc2O[C@@H]1c1cc(O)c(O)c(O)c1)c1cc(O)c(O)c(O)c1` [EGCG, [(2R,3R)-5,7-dihydroxy-2-(3,4,5-trihydroxyphenyl)chroman-3-yl]3,4,5-trihydroxybenzoate], in “in vitro”, the CC50 came out at 54.7 ± 4.5 µM. The IC50 in data set [1] came to 1.1 ± 0.4 µM.
For `O=C(O)C(=O)CC(=O)c1ccccc1` [DPBA, 2,4-dioxo-4-phenylbutanoic acid], the CC50 in “in vitro” is over 200 µM. The figures for the “antiviral activity IC50 (reduction of virus induced cytopathic effect)” value in data set [1] and in data set [1] (listed as DBPA) were “inactive” and “did not show any inhibitory effect”, respectively. In addition, the “Tm (apparent melting temperature)” value on H1N1 PA-Nter (5 µM PA-Nter, 500 µM inhibitor, no ligand 53.5) amounted to 65 °C.
The compound `O=C(O)/C(O)=C/C(=O)C1(Cc2ccc(Cl)cc2)CCCN(Cc2ccccc2)C1` (stereo not shown) [R05-3, 4-[N-benzyl-3-(4-chlorobenzyl)piperidin-3-yl]2,4-dioxobutanoic acid] came in with a CC50 in the data set “in vitro” of 79.8 ± 11.5 µM. Moreover, the IC50 in data set [1] came to 19.9 ± 2 µM. In addition, on H1N1 PA-Nter, the “Tm (apparent melting temperature)” value was 69 °C.
`O=C(O)/C(O)=C/C(=O)C1(Cc2ccc(Cl)cc2)CCCN(S(=O)(=O)Cc2ccccc2)C1` (stereo not shown) [R05-1, 4-[3-[(4-chlorophenyl)methyl]-1-(phenylmethylsulpho)-3-piperidinyl]-2-hydroxy-4-oxo-2-butenoic acid] had a CC50 in “in vitro” of over 100 µM. In addition, the IC50 at influenza polymerase is 0.19 µM; in data set [1], 20.4 ± 3 µM. In addition, on H1N1 PA-Nter, the “Tm (apparent melting temperature)” value turned out to be 69 °C.
For the compound `O=C(O)/C(O)=C/C(=O)C1(Cc2ccc(Cl)cc2)CCN(CC2CCCCC2)CC1` [R05-2, 4-[1-cyclohexylmethyl-4-(p-chlorobenzyl)piperidin-4-yl]2,4-dioxobutanoic acid], in “in vitro”, the CC50 is over 50 µM. Further, in data set [1], the IC50 stood at 15.9 ± 4 µM. Also, at H1N1 PA-Nter, the “Tm (apparent melting temperature)” value came to 71 °C.
